Source: the METLIN SMRT retention time set (Domingo-Almenara et al. 2019)

Test: gradient 5% acetonitrile 3 min, to 50% in 2 min, to 85% in 15 min, held 3 min, 100 µL/min
Details: column: Zorbax Extend-C18 2.1 x 50 mm; eluents: water / acetonitrile, 0.1% formic acid
Procedure, shortened: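 Using water and acetonitrile that each contained 0.1% formic acid, mixtures of ~100 pure standards were separated at 100 μL/min on a Zorbax Extend-C18 column (2.1 × 50 mm, 1.8 μm). The HPLC fed a quadrupole time-of-flight mass spectrometer working in positive and negative ionization mode, with dead and dwell volumes of 40 μL and 900 μL. Data were acquired over 3 months. Retention time was read from computationally picked adduct peaks after manual inspection of each.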

SMILES	RP-LC retention time [s]
O=C(COc1ccc(Cl)cc1)Nc1ccc(-c2nnc3n2CCCC3)cc1	757
CC(=O)Nc1c(C)nn(-c2ccccc2)c1N1CCC(C(=O)Nc2cccc(C(C)=O)c2)CC1	709
Cc1cc(C)n(-c2ccnc(N3CCC(C(=O)N4CCSCC4)CC3)n2)n1	854
O=C(NCc1ccc(F)cc1Cl)C1CCCN(c2cnc3nccnc3c2)C1 (configuration not stated)	748
CS(=O)(=O)N1CCC(C(=O)Nc2ccc(Br)cc2)Oc2ccccc21 (configuration not stated)	980
COc1cccc2sc(N3CCN(c4ccccc4)CC3)nc12	996
O=S(=O)(c1cccc2cccnc12)N1CC(c2noc(C3CCCN3CC3CC3)n2)C1 (configuration not stated)	634
O=C(Nc1ccc(N2CCOCC2)cc1)C1CCN(c2cnc3nccnc3c2)CC1	610
CN(C)C(CNC(=O)Nc1cccs1)c1ccccc1Cl (configuration not stated)	562
O=C1C2N=NN(c3ccccc3)C2C(=O)N1c1ccccc1 (configuration not stated)	907
CC1CCN(C(=O)c2cc(S(=O)(=O)N3CCC(C(=O)NC4CC4)CC3)cn2C)CC1	681

Next, values leading:

RP-LC retention time [s]	SMILES
558	CN(CCNC(=O)NCc1noc2ccccc12)C1CCCCC1
926	CCOCCCNC(=O)CN1c2ccc(CC)cc2-c2ccccc2S1(=O)=O
734	Cc1nc2cc(N3CC(C(=O)NCc4cccc(Cl)c4)CC3=O)ccc2o1 (configuration not stated)
681	CCOc1ccc(NC(=O)N2CCN(Cc3nc4ccccc4o3)CC2)cc1
678	O=C(Cn1c(=O)oc2ccccc21)NCC12CCCC=C1NC(=O)CC2 (configuration not stated)
756	Cn1nc(C(=O)N2CCCC(C(=O)Nc3ccccc3)C2)c2c1CCN(C(=O)c1cccc(F)c1)C2 (configuration not stated)
